Data on nine molecules can be found in US4762850A, “Dopamine-beta-hydroxylase inhibitors” (SmithKline Beckman Corporation, priority 1987, dated 1988).

pIC50: −log10 of the molar value. Structures can show the parent of a compound that is named as a salt.

For data set [1], the target named is T1, dopamine-β-hydroxylase (DBH) (Bos taurus, UniProt P15101).
T1 sequence (P15101 1-610): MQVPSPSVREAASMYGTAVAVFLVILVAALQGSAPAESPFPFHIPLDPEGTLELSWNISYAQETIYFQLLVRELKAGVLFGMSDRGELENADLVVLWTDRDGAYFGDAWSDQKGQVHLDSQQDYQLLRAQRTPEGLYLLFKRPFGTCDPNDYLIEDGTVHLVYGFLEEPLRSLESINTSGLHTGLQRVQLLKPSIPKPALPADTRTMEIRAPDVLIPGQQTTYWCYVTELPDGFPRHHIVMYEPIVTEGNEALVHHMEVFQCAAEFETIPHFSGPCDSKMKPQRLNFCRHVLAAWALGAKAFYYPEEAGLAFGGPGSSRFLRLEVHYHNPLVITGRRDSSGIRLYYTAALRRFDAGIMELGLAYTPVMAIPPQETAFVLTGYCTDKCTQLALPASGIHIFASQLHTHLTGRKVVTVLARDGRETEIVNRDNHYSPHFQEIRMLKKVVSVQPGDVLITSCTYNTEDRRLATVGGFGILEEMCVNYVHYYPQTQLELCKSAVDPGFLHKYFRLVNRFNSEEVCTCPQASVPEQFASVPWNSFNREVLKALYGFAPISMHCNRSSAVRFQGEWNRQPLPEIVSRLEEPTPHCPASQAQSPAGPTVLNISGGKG
Kind of data set: in vitro DBH inhibition: conversion of tyramine to octopamine (standard procedure of Pisano et al.). The format is biochemical. The following applies: absorbance at 330 nm, read-out: DBH IC50 (molar concentration of compound at which DBH activity was halved). The method, then: Listed in Table I are the compounds of the invention that were tested for in vitro DBH inhibition by a standard procedure for assaying conversion of tyramine to octopamine in the presence of DBH. J. J. Pisano, et al., Biochim. Biophys. Acta, 43, 566-568 (1960). Octopamine was assayed following sodium periodate oxidation to p-hydroxybenzaldehyde by measuring spectrophotometric absorbance at 330 nm. In Table I, inhibition is given in molar concentration of compound at which DBH activity was halved (IC50).

Data set [2] can be described thus: mean arterial blood pressure in spontaneously hypertensive rats. In kind it is in vivo. As to conditions: 50 mg/kg intraperitoneally. On the procedure:
Further, spontaneously hypertensive rats were treated with a suspension or solution of N-(2-aminoethyl)-1-(3,5-difluorobenzyl)-2-mercaptoimidazole-5-carboxamide,formate at a dose of 50 mg/kg intraperitoneally, and mean arterial blood pressure was monitored for 260 minutes using indwelling cannulae in the tail arteries.

For data set [3], the target named is T1, dopamine-β-hydroxylase (DBH). As to conditions: cited from earlier work; for DBH inhibition (in words): literature reports.
The conditions of data set [4]: Ehrreich et al.; cited from earlier work.
The conditions of data set [5]: Teresawa et al. and references cited therein; cited from earlier work.

On to `NCCNC(=O)c1cnc(S)n1Cc1cc(F)cc(F)c1` [N-(2-Aminoethyl)-1-(3,5-difluorobenzyl)-2-mercaptoimidazole-5-carboxamide,formate], for which the pIC50 in data set [1] is 6.47. The “mean arterial blood pressure reduction compared to vehicle-treated controls” value in data set [2] (spontaneously hypertensive rats) was “significant blood pressure reductions”. Also, the “blood pressure when monitoring was terminated” value in data set [2] (monitored for 260 minutes) is on record as “blood pressure remained decreased”.
Take `O=C(O)c1ccc(CCC(Br)CBr)cn1` (stereo not drawn) [5-(3,4-dibromobutyl)picolinic acid]: the “DBH inhibition (in words)” value in data set [3] is “DBH inhibitors”.
For `O=C(O)c1cnc(S)n1Cc1cc(F)cc(F)c1` [1-(3,5-Difluorobenzyl)-2-mercaptoimidazole-5-carboxylic acid], the pIC50 in data set [1] is 4.00.
In the case of `NNCc1ccccc1` [benzylhydrazine], the “mode of DBH inhibition” value in data set [3] is “competitive inhibitors”.
Turning to `NOCc1ccccc1` [Benzyloxyamine, benzyloxyamine], the “mode of DBH inhibition” value in data set [3] is “competitive inhibitors”.
With `CCCCc1ccc(C(N)=O)nc1` [Bupicomide, 5-(n-butyl)picolinamine], in data set [3], the “DBH inhibition (in words)” value is on record as “DBH inhibitor”. Also, in data set [4], the antihypertensive activity entry is reported as “has antihypertensive activity”.
In the case of `CCCCc1ccc(C(=O)O)nc1` [Fusaric acid], the toxicity result in data set [5] was “hepatotoxic”.
As for `CN(C)C(=S)SCc1ccc(C(=O)O)nc1` [5-(dimethyldithiocarbamoylmethyl)picolinic acid], in data set [3], the “DBH inhibition (in words)” value is reported as “DBH inhibitors”.
`O=C(O)c1ccc(CCCCCl)cn1` [5-(4-chlorobutyl) picolinic acid]: the “DBH inhibition (in words)” value in data set [3] is reported as “inhibit DBH”.
